Reference: patent US20040138212A1, “Disubstituted 1,7-guanines” (priority 2001, published 2004)
pIC50: −log10 of the molar value.

Target: telomerase enzyme (Homo sapiens, UniProt O14746)
Test: Flash Plate-based telomerase assay
Type: biochemical
Conditions: telomerase inhibition, two hours of incubation
Source text: The telomerase activity of the compounds of the invention has been evaluated using a Flash Plate-based assay. […] Other methods for determining the inhibitory concentration of a compound of the invention against telomerase can be employed as will be apparent to a person skilled in the art based on the disclosure herein.
Briefly, the assay mixture is costituted by:
telomerase enzyme diluted in a buffer, the composition of which has been selected to maintain the enzyme activity stable along the duration of the assay.
dNTPs, deoxynucleotides 5′-triphosphate.
biotynilated oligo as primer.
increasing concentrations of test compounds/positive control.
After two hours of incubation at […] the telomeric repeats added are evaluated by hybridization in solution with a 3′-labeled short oligonucleotide probe.
The extent of hybridization is then quantitated by transferring the reaction mixture in a streptavidin-coated flash plate, where the binding between biotin and streptavidin occurs.
The telomerase activity is proportional to the radioactivity measured and the inhibitory activity of the compounds is evaluated as IC50 using the Sigma Plot fit program.
With the above-described method, IC50 values of the compounds of the present invention were determined.

Chain of telomerase enzyme (O14746 whole entry): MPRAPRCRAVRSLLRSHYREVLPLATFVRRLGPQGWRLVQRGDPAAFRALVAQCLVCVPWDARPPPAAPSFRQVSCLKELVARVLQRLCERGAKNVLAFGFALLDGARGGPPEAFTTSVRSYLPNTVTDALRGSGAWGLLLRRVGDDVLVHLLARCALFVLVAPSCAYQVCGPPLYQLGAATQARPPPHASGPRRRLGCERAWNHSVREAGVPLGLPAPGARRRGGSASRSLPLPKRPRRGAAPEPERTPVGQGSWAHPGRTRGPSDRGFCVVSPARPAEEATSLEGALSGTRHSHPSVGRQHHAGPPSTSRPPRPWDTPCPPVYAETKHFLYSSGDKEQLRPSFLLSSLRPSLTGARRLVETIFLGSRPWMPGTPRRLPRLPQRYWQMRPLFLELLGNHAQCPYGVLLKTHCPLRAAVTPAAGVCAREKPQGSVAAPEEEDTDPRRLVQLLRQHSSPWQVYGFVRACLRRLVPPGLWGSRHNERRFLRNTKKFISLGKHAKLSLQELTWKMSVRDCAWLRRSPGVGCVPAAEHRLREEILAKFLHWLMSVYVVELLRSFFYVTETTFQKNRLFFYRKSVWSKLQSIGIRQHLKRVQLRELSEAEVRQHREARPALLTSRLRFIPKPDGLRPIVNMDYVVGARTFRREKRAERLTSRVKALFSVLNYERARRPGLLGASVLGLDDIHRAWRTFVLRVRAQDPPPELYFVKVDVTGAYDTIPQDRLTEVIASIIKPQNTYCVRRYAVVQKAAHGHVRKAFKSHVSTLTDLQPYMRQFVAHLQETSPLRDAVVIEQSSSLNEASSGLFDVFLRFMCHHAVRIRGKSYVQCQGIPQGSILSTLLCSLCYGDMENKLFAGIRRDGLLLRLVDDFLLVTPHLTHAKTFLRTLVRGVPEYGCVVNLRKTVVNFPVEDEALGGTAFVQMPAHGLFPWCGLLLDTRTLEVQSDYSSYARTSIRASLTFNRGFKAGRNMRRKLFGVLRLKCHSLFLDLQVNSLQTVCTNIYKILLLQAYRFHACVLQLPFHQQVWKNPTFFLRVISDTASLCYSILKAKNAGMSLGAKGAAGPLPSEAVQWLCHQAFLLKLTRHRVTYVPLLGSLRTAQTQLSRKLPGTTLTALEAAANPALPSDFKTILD

- pIC50: 4.91
Compound: COC(=O)c1ccc(Cn2c(N)nc3ncn(Cc4ccc(C(=O)OC)cc4)c3c2=O)cc1 [compound 13, methyl 4-({2-amino-7-[4-(methoxycarbonyl)benzyl]-6-oxo-6,7-dihydro-1H-purin-1-yl}methyl) benzoate]
